Source: patent US20250059182A1, “SOS1 INHIBITORS” (Mirati Therapeutics, Inc., priority 2021, published 2025)
Structures can show the parent of a compound that is named as a salt. Where two headings read alike, the source gives them in different places.

Key:
[1] = target: T1, recombinant human SOS1 polypeptide (amino acids 560-1049) (Homo sapiens, UniProt Q07889); assay: HTRF displacement assay: inhibition of labeled tracer binding to SOS1; conditions: Table A1, Morrison equation for competitive binding
T1 construct: corresponding to amino acids 560-1049, expressed in E. Coli; made in house; host or cells: E. coli
T1 sequence (Q07889 560-1049): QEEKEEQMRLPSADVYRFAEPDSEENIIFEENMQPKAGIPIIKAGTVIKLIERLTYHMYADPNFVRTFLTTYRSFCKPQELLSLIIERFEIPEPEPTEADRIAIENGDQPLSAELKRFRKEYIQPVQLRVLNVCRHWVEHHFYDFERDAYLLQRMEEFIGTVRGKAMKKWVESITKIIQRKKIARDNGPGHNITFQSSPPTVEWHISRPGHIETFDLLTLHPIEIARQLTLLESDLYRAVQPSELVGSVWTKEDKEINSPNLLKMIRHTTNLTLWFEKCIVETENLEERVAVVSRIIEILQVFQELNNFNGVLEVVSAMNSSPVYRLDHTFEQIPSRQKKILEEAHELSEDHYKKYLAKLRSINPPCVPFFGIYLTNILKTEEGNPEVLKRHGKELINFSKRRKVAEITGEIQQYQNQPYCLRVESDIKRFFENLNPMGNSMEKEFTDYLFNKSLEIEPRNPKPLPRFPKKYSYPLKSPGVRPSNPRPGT

pERK in MKN1 cells = assay: pERK inhibition, In-Cell Western (LI-COR Odyssey), MKN1 cells; assay type: cell-based; conditions: Homo sapiens
Outline: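 MKN1 cells were exposed for about 0.5–1 h at 37 °C to nine 3-fold dilutions starting at 10 µM. Cells were then fixed in formaldehyde, permeabilised with methanol, and immunostained for pERK and GAPDH with near-infrared secondary antibodies. GAPDH-normalised pERK signal relative to vehicle gave % inhibition, from which IC50 was fitted.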

[2] = MKN-1, Table B1, MKN1 or H358 cells (table does not say which), 0.5-1 hour incubation, read-out: IC50 (nM), pERK inhibition
[3] = MKN-1, read-out: IC50 (nM), pERK inhibition

With Cc1c(C#N)cccc1[C@@H](C)Nc1nnc(C)c2cnc(N3CCc4ncn(C)c4C3)cc12 [Example P-57, (R)-2-methyl-3-(1-((4-methyl-7-(3-methyl-3,4,6,7-tetrahydro-5H-imidazo[4,5-c]pyridin-5-yl)pyrido[3,4-d]pyridazin-1-yl)amino)ethyl)benzonitrile] the Ki [1] was 1.17 nM and the IC50 (pERK in MKN1 cells; [2]) was 914 nM.
Work on COC1(c2cc3c(N[C@H](C)c4cccc(C#N)c4C)nnc(C)c3cn2)CCN(C)CC1 [Example P-69, (R)-3-(1-((7-(4-methoxy-1-methylpiperidin-4-yl)-4-methylpyrido[3,4-d]pyridazin-1-yl)amino)ethyl)-2-methylbenzonitrile] yielded a Ki [1] of 51.8 nM and an IC50 (pERK in MKN1 cells; [2]) of 849 nM.
Compound COC1(c2cc3c(N[C@H](C)c4cccc(C#N)c4C)nnc(C)c3cn2)CCN(C(C)=O)CC1 [Example P-75, (R)-3-(1-((7-(1-acetyl-4-methoxypiperidin-4-yl)-4-methylpyrido[3,4-d]pyridazin-1-yl)amino)ethyl)-2-methylbenzonitrile] has a Ki [1] of 17.6 nM and an IC50 (pERK in MKN1 cells; [2]) of 568 nM.
COC1(c2cc3c(N[C@H](C)c4cccc(C#N)c4C)nnc(C)c3cn2)CCOCC1 [Example P-81, (R)-3-(1-((7-(4-methoxytetrahydro-2H-pyran-4-yl)-4-methylpyrido[3,4-d]pyridazin-1-yl)amino)ethyl)-2-methylbenzonitrile] showed a Ki [1] of 61.7 nM and an IC50 (pERK in MKN1 cells; [2]) of 565 nM.
Work on COC1(c2cc3c(N[C@H](C)c4cccc(C#N)c4C)nnc(C)c3cc2F)CCN(C)CC1 [Example P-153, (R)-3-(1-((6-fluoro-7-(4-methoxy-1-methylpiperidin-4-yl)-4-methylphthalazin-1-yl)amino)ethyl)-2-methylbenzonitrile] yielded a Ki [1] of 16.6 nM and an IC50 (pERK in MKN1 cells; [2]) of 909 nM.
With COC1(c2cc3c(N[C@H](C)c4cccc(C#N)c4C)nnc(C)c3cc2F)CCN(C(C)=O)CC1 [Example P-159, (R)-3-(1-((7-(1-acetyl-4-methoxypiperidin-4-yl)-6-fluoro-4-methylphthalazin-1-yl)amino)ethyl)-2-methylbenzonitrile] the Ki [1] was 2.2 nM and the IC50 (pERK in MKN1 cells; [2]) was 100 nM.
COC1(c2cc3c(N[C@H](C)c4cccc(C#N)c4C)nnc(C)c3cc2F)CCOCC1 [Example P-165, (R)-3-(1-((6-fluoro-7-(4-methoxytetrahydro-2H-pyran-4-yl)-4-methylphthalazin-1-yl)amino)ethyl)-2-methylbenzonitrile] showed a Ki [1] of 4.66 nM and an IC50 (pERK in MKN1 cells; [2]) of 352 nM.
Compound Cc1nnc(N[C@H](C)c2cccc(C(C)(F)F)c2F)c2cc(N3CCOCC3)ncc12 [Example P-169, (R)-N-(1-(3-(1,1-difluoroethyl)-2-fluorophenyl)ethyl)-4-methyl-7-morpholinopyrido[3,4-d]pyridazin-1-amine] has a Ki [1] of 0.827 nM and an IC50 (pERK in MKN1 cells; [2]) of 71.4 nM.
With Cc1nnc(N[C@H](C)c2cccc(C(C)(F)F)c2F)c2cc(N(C)C)ncc12 [Example P-170, (R)-N1-(1-(3-(1,1-difluoroethyl)-2-fluorophenyl)ethyl)-N7,N7,4-trimethylpyrido[3,4-d]pyridazine-1,7-diamine] the Ki [1] was 2.18 nM and the IC50 (pERK in MKN1 cells; [2]) was 192 nM.
Compound Cc1nnc(N[C@H](C)c2cccc(C(C)(F)F)c2F)c2cc(N3CCN4CCOC[C@@H]4C3)ncc12 [Example P-171, N-((R)-1-(3-(1,1-difluoroethyl)-2-fluorophenyl)ethyl)-7-((S)-hexahydropyrazino[2,1-c][1,4]oxazin-8(1H)-yl)-4-methylpyrido[3,4-d]pyridazin-1-amine] has a Ki [1] of 0.425 nM and an IC50 (pERK in MKN1 cells; [2]) of 28.5 nM.
With Cc1c(C#N)cccc1[C@@H](C)Nc1nnc(C)c2cc(F)c(-c3ccc(=O)n(C)c3)cc12 [Example P-172, (R)-3-(1-((6-fluoro-4-methyl-7-(1-methyl-6-oxo-1,6-dihydropyridin-3-yl)phthalazin-1-yl)amino)ethyl)-2-methylbenzonitrile] the Ki [1] was 12.5 nM and the IC50 (pERK in MKN1 cells; [2]) was 457 nM.
For Cc1nnc(N[C@H](C)c2cccc(C(C)(F)F)c2F)c2cc(-c3ccc(=O)n(C)c3)c(F)cc12 [Example P-173, (R)-5-(4-((1-(3-(1,1-difluoroethyl)-2-fluorophenyl)ethyl)amino)-7-fluoro-1-methylphthalazin-6-yl)-1-methylpyridin-2(1H)-one], the Ki [1] was 8.31 nM and the IC50 (pERK in MKN1 cells; [2]) was 573 nM.
Cc1c(C#N)cccc1[C@@H](C)Nc1nnc(C)c2cnc(-c3ccc(=O)n(C)c3)cc12 [Example P-174, (R)-2-methyl-3-(1-((4-methyl-7-(1-methyl-6-oxo-1,6-dihydropyridin-3-yl)pyrido[3,4-d]pyridazin-1-yl)amino)ethyl)benzonitrile] showed a Ki [1] of 43.5 nM and an IC50 (pERK in MKN1 cells; [2]) of 1330 nM.
Compound Cc1nnc(N[C@H](C)c2cccc(C(C)(F)F)c2F)c2cc(-c3ccc(=O)n(C)c3)ncc12 [Example P-175, (R)-5-(1-((1-(3-(1,1-difluoroethyl)-2-fluorophenyl)ethyl)amino)-4-methylpyrido[3,4-d]pyridazin-7-yl)-1-methylpyridin-2(1H)-one] has a Ki [1] of 15.4 nM and an IC50 (pERK in MKN1 cells; [2]) of 415 nM.
For Cc1c(C#N)cccc1[C@@H](C)Nc1nnc(N2CC[C@H](N(C)C)C2)c2cnc(N3C[C@H]4C[C@@H]3CO4)cc12 [Example P-176, 3-((R)-1-((7-((1R,4R)-2-oxa-5-azabicyclo[2.2.1]heptan-5-yl)-4-((S)-3-(dimethylamino)pyrrolidin-1-yl)pyrido[3,4-d]pyridazin-1-yl)amino)ethyl)-2-methylbenzonitrile], the Ki [1] was 0.708 nM and the IC50 (pERK in MKN1 cells; [2]) was 120 nM.
Cc1c(C#N)cccc1[C@@H](C)Nc1nnc(N2CC(N)C2)c2cnc(N3C[C@H]4C[C@@H]3CO4)cc12 [Example P-177, 3-((R)-1-((4-(3-aminoazetidin-1-yl)-7-((1R,4R)-2-oxa-5-azabicyclo[2.2.1]heptan-5-yl)pyrido[3,4-d]pyridazin-1-yl)amino)ethyl)-2-methylbenzonitrile] was tested, and the Ki [1] was 0.541 nM and the IC50 (pERK in MKN1 cells; [2]) was 451 nM.
Cc1c(C#N)cccc1[C@@H](C)Nc1nnc(C)c2cc(F)c(N(C)[C@@H]3CCN(C)C3)cc12 [Example P-178, 3-((R)-1-((6-fluoro-4-methyl-7-(methyl((R)-1-methylpyrrolidin-3-yl)amino)phthalazin-1-yl)amino)ethyl)-2-methylbenzonitrile] showed a Ki [1] of 1.1 nM and an IC50 (pERK in MKN1 cells; [2]) of 54.7 nM.
Cc1c(C#N)cccc1[C@@H](C)Nc1nnc(C)c2cc(F)c(N(C)[C@H]3CCN(C)C3)cc12 [Example P-179, 3-((R)-1-((6-fluoro-4-methyl-7-(methyl((S)-1-methylpyrrolidin-3-yl)amino)phthalazin-1-yl)amino)ethyl)-2-methylbenzonitrile] gave a Ki [1] of 0.714 nM and an IC50 (pERK in MKN1 cells; [2]) of 84.7 nM.
In the case of Cc1c(C#N)cccc1[C@@H](C)Nc1nnc(N2CC(N(C)C)C2)c2cnc(N3C[C@H]4C[C@@H]3CO4)cc12 [Example P-180, 3-((R)-1-((7-((1R,4R)-2-oxa-5-azabicyclo[2.2.1]heptan-5-yl)-4-(3-(dimethylamino)azetidin-1-yl)pyrido[3,4-d]pyridazin-1-yl)amino)ethyl)-2-methylbenzonitrile], the Ki [1] is reported as 0.491 nM and the IC50 (pERK in MKN1 cells; [2]) is reported as 53.4 nM.
Cc1nnc(N[C@H](C)c2cccc(C(F)(F)F)c2F)c2cc(N(C)[C@H]3CCN(C)C3)c(F)cc12 [Example P-181, 6-fluoro-N^1-((R)-1-(2-fluoro-3-(trifluoromethyl)phenyl)ethyl)-N7,4-dimethyl-N^7-((S)-1-methylpyrrolidin-3-yl)phthalazine-1,7-diamine] was tested, and the Ki [1] was 0.711 nM and the IC50 (pERK in MKN1 cells; [2]) was 223 nM.
Work on Cc1nnc(N[C@H](C)c2cccc3c2OCC3(F)F)c2cc(N3C[C@@H]4C[C@H]3CN4C)ncc12 [Example P-184, N-((R)-1-(3,3-difluoro-2,3-dihydrobenzofuran-7-yl)ethyl)-4-methyl-7-((1S,4S)-5-methyl-2,5-diazabicyclo[2.2.1]heptan-2-yl)pyrido[3,4-d]pyridazin-1-amine formic acid salt] yielded a Ki [1] of 1.02 nM and an IC50 (pERK in MKN1 cells; [3]) of 65.7 nM.
Compound Cc1c(C#N)cccc1[C@@H](C)Nc1nnc(C)c2cc(C(F)F)c(N3CCN(C)CC3)cc12 [Example P-185, (R)-3-(1-((6-(difluoromethyl)-4-methyl-7-(4-methylpiperazin-1-yl)phthalazin-1-yl)amino)ethyl)-2-methylbenzonitrile formic acid] has a Ki [1] of 4.95 nM and an IC50 (pERK in MKN1 cells; [3]) of 118 nM.
With Cc1c(C#N)cccc1[C@@H](C)Nc1nnc(C)c2cc(CF)c(N3CCN(C)CC3)cc12 [Example P-186, (R)-3-(1-((6-(fluoromethyl)-4-methyl-7-(4-methylpiperazin-1-yl)phthalazin-1-yl)amino)ethyl)-2-methylbenzonitrile] the Ki [1] was 1.27 nM and the IC50 (pERK in MKN1 cells; [2]) was 181 nM.
Cc1c(C#N)cccc1[C@@H](C)Nc1nnc(C)c2c(C)nc(N3CCOCC3)cc12 [Example P-188, (R)-3-(1-((4,5-dimethyl-7-morpholinopyrido[3,4-d]pyridazin-1-yl)amino)ethyl)-2-methylbenzonitrile] was tested, and the Ki [1] was 2.5 nM and the IC50 (pERK in MKN1 cells; [2]) was 49.1 nM.
For Cc1c(C#N)cccc1[C@@H](C)Nc1nnc(C)c2c(C)nc(N(C)[C@H]3CCN(C)C3)cc12 [Example P-190, 3-((R)-1-((4,5-dimethyl-7-(methyl((S)-1-methylpyrrolidin-3-yl)amino)pyrido[3,4-d]pyridazin-1-yl)amino)ethyl)-2-methylbenzonitrile], the Ki [1] was 0.572 nM and the IC50 (pERK in MKN1 cells; [2]) was 63.6 nM.
